From patent US10125125B2, “N-(heteroaryl)-sulfonamide derivatives useful as S100-inhibitors” (Active Biotech AB, priority 2013, dated 2018)
Like-named read-outs stand apart in the source and are kept apart here.

Legend:
[1] = Prodrug assay: plasma concentrations of prodrugs and demethylated parents after cassette dosing, LC-MS; type: in vivo, C57 Bl/6 mice; details: C57 Bl/6, mouse, solution, read-out: Parent (demethylated compound) Conc. in plasma after prodrug dosing
Procedure: ABR-239313, 239470 and 239749 were administered to seven C57 Bl/6 mice as a cassette formulation either intravenously (4 animals, nominal 1 mg/kg) or per oral (3 animals, nominal 5 mg/kg).
Blood samples were collected at time points ranging from 5 minutes to 7 hours after administration. After sample withdrawal, plasma was directly separated and frozen until analysis.
The plasma as well as the formulation samples were analyzed with respect to the concentration of ABR-239313, 239470, 239749 and the corresponding demethylated compounds, i.e. Examples 9, 75 and 73 (ABR-239247, 239417 and 239167) by means of LC-MS.
The samples were precipitated with acidified acetonitrile and centrifuged prior to injection on LC-MS system (consisting of a triple quadrupole instrument operated in negative MRM ionization mode, and a fast-gradient reversed-phase LC on a Symmetry Shield RP18, 2×30 mm, 3.5 um column).
In Table 3 the concentrations of each analyte are presented.

[2] = target: biotinylated human S100A9 : rhRAGE-Fc interaction (Homo sapiens (Human), UniProt P06702); assay: AlphaScreen inhibition assay, Biot-hS100A9:hRAGE-Fc (S100A9-RAGE inhibition assay); type: binding
Sequence of biotinylated human S100A9 : rhRAGE-Fc interaction (P06702 whole entry): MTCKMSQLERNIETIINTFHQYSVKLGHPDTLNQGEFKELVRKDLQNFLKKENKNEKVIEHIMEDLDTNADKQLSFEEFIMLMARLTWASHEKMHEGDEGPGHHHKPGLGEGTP
Description: FIG. 1 is a schematic representation of an assay of the inhibition of the interaction between biotinylated human S100A9 and human RAGE-Fc using a small molecule S100A9 binder.
Inhibition Assay, Biot-hS100A9:hRAGE-Fc
The AlphaScreen (Amplified Luminescent Proximity Homogeneous Assay) contains two types of beads, Alpha Donor beads and Acceptor beads (PerkinElmer). Upon laser excitation at 680 nm a photosensitizer in the Donor bead converts ambient oxygen to a more excited singlet state. The singlet oxygen molecule diffuses (maximum 200 nm) to react with a thioxene derivative in the Acceptor bead and generates a chemiluminescence reaction. Fluorophores in the Acceptor bead subsequently emit light at 520-620 nm which can be detected in the EnVision® Multilabel plate Reader (PerkinElmer). The beads are light sensitive and all work with the beads is performed under subdued light conditions or using green filters on light sources (Roscolux Chroma Green #389, Rosco).
In the AlphaScreen Inhibition Assay described here, protein A (Staphylococcus aureus) conjugated Acceptor beads are used together with streptavidin coated Donor beads (Perkin Elmer 6760617M). The Acceptor beads are pre-incubated with Fc-tagged recombinant human RAGE (rhRAGE-Fc) allowing binding of the rhRAGE-Fc to protein A on the beads. Biotinylated human S100A9 (biot-hS100A9) is pre-incubated with the low molecular test compounds. The pre-mixes are then added to the wells of a micro-plate and incubated allowing interaction between biot-hS100A9 and rhRAGE-Fc. Subsequent addition of streptavidin coated Donor beads causes binding of the streptavidin to the biotinylated hS100A9. After an additional incubation the signal is measured.
Without inhibitory compounds, the interaction of biot-hS100A9 to rhRAGE-Fc will bring the Acceptor and Donor beads in close proximity thus generating a high signal. With an inhibitor present the complex will not form resulting in a decreased signal.
Chemicals and reagents. • AlphaScreen® General IgG (Protein A) Detection Kit, (PerkinElmer 6760617M) • HBS-P buffer (GE Healthcare, BR-1003-68) • HBS-N buffer (GE Healthcare, BR-1003-69) • CaCl2 in HBS-P • ZnCl2 in Milli-Q water • DMSO • Biotinylated hS100A9, (biotinylated via cystein by EZ-link Iodoacetyl-PEG2-Biotin reagent (Pierce no. 21334), in HBS-N • rhRAGE-Fc (R&D Systems, 1145-RG-50), in HBS-P
The AlphaScreen assay method is used for screening of the inhibitory effect of different compound samples at fixed concentrations or for IC50 determination by varying the compound concentrations. Samples of test compounds and references are prepared from solutions in DMSO. Relevant reference inhibitors and DMSO are used as controls for defined inhibition and non-inhibition, respectively in the assay. The percent inhibition in assay for test compounds and references are calculated by comparing their obtained assay signals with the signal values for the control with only DMSO (no compound).
Assay concentration of biotinylated hS100A9 and rhRAGE-Fc are batch dependent, and are determined and defined by separate cross-titration experiments using this AlphaScreen inhibition method to verify the optimal setup regarding signal strength and achievement of a defined inhibition with relevant reference compounds. The Final assay concentrations of Acceptor and Donor beads are 20 μg/mL.
Experimental Set Up for Screening, Preparation of Solutions and Beads.
Assay buffer is prepared by adding CaCl2 and ZnCl2 to HBS-P and is used freshly prepared in the experiment.
Biotin-hS100A9 solution for the experiment is prepared by dilution of appropriate amount of stock solution biot-hS100A9 in assay buffer (with CaCl2 and ZnCl2) and incubation in room temperature for 30 minutes.
rhRAGE-Fc solution for the experiment is prepared by dilution appropriate amount of rhRAGE-Fc stock in assay buffer.
Protein A Acceptor beads are diluted in assay buffer and are added to an equal volume of the prepared diluted rhRAGE-Fc solution.

[3] = intravenous, i.v. cassette of prodrugs, nominal 1 mg/kg
[4] = oral, p.o. cassette of prodrugs, nominal 5 mg/kg

concentration at 0.083 h [1, 3] | concentration at 0.5 h [1, 3] | concentration at 1 h [1, 3] | concentration at 2 h [1, 3] | concentration at 4 h [1, 3] | concentration at 7 h [1, 3] | concentration at 0.5 h [1, 4] | concentration at 1 h [1, 4] | concentration at 2 h [1, 4] | concentration at 4 h [1, 4] | concentration at 7 h [1, 4] | IC50 [2] | Compound
89 nM | 200 nM | 190 nM | 210 nM | 180 nM | 130 nM | 460 nM | 490 nM | 690 nM | 610 nM | 780 nM | 1200 nM | O=S(=O)(Nc1cnc(Cl)cc1O)c1cc(Cl)sc1Cl [Example 73, 2,5-dichloro-N-(6-chloro-4-hydroxypyridin-3-yl)thiophene-3-sulfonamide]
44 nM | 5 nM | 3 nM | 6 nM | 4 nM | 4 nM | 45 nM | 26 nM | 21 nM | 12 nM | 19 nM | 120 nM | O=S(=O)(Cc1cc(Cl)cc(Cl)c1)Nc1ncc(Cl)cc1O [Example 9, N-(5-chloro-3-hydroxypyridin-2-yl)-1-(3,5-dichlorophenyl)methanesulfonamide]
120 nM | 320 nM | 320 nM | 320 nM | 210 nM | 200 nM | 570 nM | 860 nM | 800 nM | 630 nM | 1100 nM | 250 nM | O=S(=O)(Cc1ccc(Cl)c(Cl)c1)Nc1ncc(Br)nc1O [Example 75, N-(5-bromo-3-hydroxypyrazin-2-yl)-1-(3,4-dichlorophenyl)methanesulfonamide]
